# Assay results: patent US12564597B2 (priority 2020, dated 2026)
# How the values were obtained:
# [1] = Example 2B: similar metabolism analysis of further deuterated ibogaine analogs; assay type: in vitro ADME; details: present tense, no data
# Experimental: A similar analysis is performed with each of CD2HO-ibogamine, CDH2O-ibogamine, CD3CD2O-ibogamine, CD3CH2O-ibogamine, CH3CD2O-ibogamine and CH3CDHO-ibogamine.
# [2] = Plasma pharmacokinetics and brain distribution in male Wistar rats after a single intraperitoneal dose; details: for AUC(0-t) / Cmax / Tmax: ip, 40 mg/kg; for AUC(0-t): AUClast
# Experimental: Formulation strengths for intraperitoneal administration was 4 mg/mL. A weighed quantity of compound was combined with an appropriate volume of vehicle (10% ethanol and 90% normal saline), the mixture was warmed to 55° C. and vortexed until a clear yellowish solution was obtained. The dosing volume administered was 10 mL/kg for intraperitoneal route.
# Healthy male Wistar rats (8-12 weeks old) weighing between 280 to 300 g were procured from Global, India. Three rats were housed in each cage. […] Temperature and humidity were recorded by auto-controlled data logger system. All the animals were provided laboratory rodent diet (Envigo Research private Ltd, Hyderabad). Reverse osmosis water treated with ultraviolet light was provided ad libitum.
# Blood samples (approximately 120 μL) were collected under light isoflurane anesthesia from retro orbital plexus from a set of three rats at specified time intervals. Samples were collected into labeled micro-tubes, containing K2EDTA solution (10 μL of 20% K2EDTA of solution per mL of blood) as an anticoagulant. Plasma was immediately harvested from the blood by centrifugation at 4000 rpm for 10 min at 4±2° C. and stored below −70±10° C. until bioanalysis.
# Immediately, after blood collection animals were euthanized with excess CO2 and brain was isolated at each time point. Brain was rinsed three times in ice cold PBS (for 5-10 seconds/rinse using ˜5-10 mL fresh PBS in disposable petri dish for each rinse) and dried on blotting paper. Brain samples were homogenized using ice-cold phosphate buffer saline (pH 7.4) and homogenates were stored below −70±10° C. until analysis. Total homogenate volume was three times the tissue weight.
# The extraction procedure for plasma and brain samples and the spiked plasma and brain calibration standards were identical: A 25 PL of study sample or spiked plasma and brain calibration standard was added to individual pre-labeled micro-centrifuge tubes followed by 100 PL of internal standard prepared in Acetonitrile (Glipizide, 500 ng/mL) was added except for blank, where 100 μL of Acetonitrile was added. Samples were vortexed for 5 minutes and then centrifuged for 10 minutes at a speed of 4000 rpm at 4° C. Following centrifugation, 100 μL of clear supernatant was transferred to a 96 well plate and analyzed using LC-MS/MS.
# Non-compartmental analysis tool of Phoenix WinNonlin® (Version 7.0) was used to assess the pharmacokinetic parameters. Peak plasma concentrations (Cmax) and time for the peak plasma concentrations (Tmax) were the observed values. The areas under the concentration time curve (AUClast and AUCinf) were calculated by linear trapezoidal rule. The terminal elimination rate constant, ke was determined by regression analysis of the linear terminal portion of the log plasma concentration-time curve.
# [3] = 0.08 h after CD3O-ibogamine 40 mg/kg i.p.
# [4] = 0.08 h after ibogaine 40 mg/kg i.p.
# [5] = 0.5 h after CD3O-ibogamine 40 mg/kg i.p.
# [6] = 0.5 h after ibogaine 40 mg/kg i.p.
# [7] = 1 h after CD3O-ibogamine 40 mg/kg i.p.
# [8] = 1 h after ibogaine 40 mg/kg i.p.
# [9] = 2 h after CD3O-ibogamine 40 mg/kg i.p.
# [10] = 2 h after ibogaine 40 mg/kg i.p.
# [11] = 3 h after CD3O-ibogamine 40 mg/kg i.p.
# [12] = 3 h after ibogaine 40 mg/kg i.p.
# [13] = male, Wistar, rat, in vivo, plasma, analyte after CD3O-ibogamine 40 mg/kg i.p.
# [14] = male, Wistar, rat, in vivo, plasma, analyte after ibogaine 40 mg/kg i.p.
# [15] = male, Wistar, rat, in vivo, brain, analyte after CD3O-ibogamine 40 mg/kg i.p.
# [16] = male, Wistar, rat, in vivo, brain, analyte after ibogaine 40 mg/kg i.p.
compound,measurement,setting,value
[2H]C(C)Oc1ccc2[nH]c3c(c2c1)CCN1CC2CC(CC)C1C3C2 (stereo not shown) [CH3CDHO-ibogamine],degradation compared to ibogaine,[1],at least as fast or faster than ibogaine
same,formation of noribogaine compared to that of ibogaine,[1],as fast or slower
CCC1CC2CC3c4[nH]c5ccc(O)cc5c4CCN(C2)C13 (stereo not shown) [Noribogaine],Mean brain concentration,[2]; [3],2997 ng/g
same,Mean plasma concentration,[2]; [3],208 ng/mL
same,Mean brain concentration,[2]; [4],2383 ng/g
same,Mean plasma concentration,[2]; [4],312 ng/mL
same,Mean brain concentration,[2]; [5],10413 ng/g
same,Mean plasma concentration,[2]; [5],677 ng/mL
same,Mean brain concentration,[2]; [6],14563 ng/g
same,Mean plasma concentration,[2]; [6],1179 ng/mL
same,Mean brain concentration,[2]; [7],13254 ng/g
same,Mean plasma concentration,[2]; [7],736 ng/mL
same,Mean brain concentration,[2]; [8],17727 ng/g
same,Mean plasma concentration,[2]; [8],1455 ng/mL
same,Mean brain concentration,[2]; [9],14940 ng/g
same,Mean plasma concentration,[2]; [9],690 ng/mL
same,Mean brain concentration,[2]; [10],11692 ng/g
same,Mean plasma concentration,[2]; [10],846 ng/mL
same,Mean brain concentration,[2]; [11],10509 ng/g
same,Mean plasma concentration,[2]; [11],584 ng/mL
same,Mean brain concentration,[2]; [12],10540 ng/g
same,Mean plasma concentration,[2]; [12],861 ng/mL
same,AUClast,"[2]; brain, analyte after CD3O-ibogamine 40 mg/kg i.p.",36953.27 ng·h/g
same,AUClast,"[2]; brain, analyte after ibogaine 40 mg/kg i.p.",39658.47 ng·h/g
same,Mean brain concentration,"[2]; male, Wistar, rat, in vivo",17341 ng/g
same,Mean plasma concentration,"[2]; male, Wistar, rat, in vivo",871 ng/mL
same,AUC(0-t),[2]; [13],1970 ng·h/mL
same,AUC(0-t),[2]; [14],3030 ng·h/mL
same,Cmax,[2]; [15],14900 ng/g
same,Cmax,[2]; [16],17700 ng/g
same,Cmax,[2]; [13],736 ng/mL
same,Cmax,[2]; [14],1460 ng/mL
same,Tmax,[2]; [15],2 h
same,Tmax,[2]; [16],1 h
same,Tmax,[2]; [13],1 h
same,Tmax,[2]; [14],1 h
[2H]C([2H])([2H])C([2H])([2H])Oc1ccc2[nH]c3c(c2c1)CCN1CC2CC(CC)C1C3C2 (stereo not shown) [CD3CD2O-ibogamine],degradation compared to ibogaine,[1],at least as fast or faster than ibogaine
same,formation of noribogaine compared to that of ibogaine,[1],as fast or slower
[2H]C([2H])([2H])COc1ccc2[nH]c3c(c2c1)CCN1CC2CC(CC)C1C3C2 (stereo not shown) [CD3CH2O-ibogamine],degradation compared to ibogaine,[1],at least as fast or faster than ibogaine
same,formation of noribogaine compared to that of ibogaine,[1],as fast or slower
[2H]C([2H])(C)Oc1ccc2[nH]c3c(c2c1)CCN1CC2CC(CC)C1C3C2 (stereo not shown) [CH3CD2O-ibogamine],degradation compared to ibogaine,[1],at least as fast or faster than ibogaine
same,formation of noribogaine compared to that of ibogaine,[1],as fast or slower
[2H]C([2H])Oc1ccc2[nH]c3c(c2c1)CCN1CC2CC(CC)C1C3C2 (stereo not shown) [CD2HO-ibogamine],degradation compared to ibogaine,[1],at least as fast or faster than ibogaine
same,formation of noribogaine compared to that of ibogaine,[1],as fast or slower
[2H]COc1ccc2[nH]c3c(c2c1)CCN1CC2CC(CC)C1C3C2 (stereo not shown) [CDH2O-ibogamine],degradation compared to ibogaine,[1],at least as fast or faster than ibogaine
same,formation of noribogaine compared to that of ibogaine,[1],as fast or slower
